Experimental data reported in article PMC7722985 (Biochemistry, 2015).
Values belong to the substance of their own block, whether it stands above or below them.

Experiments:
p300 Taz2 = conditions: cited from earlier work
[1] = test system: Taz2 domain of p300 (A1723-K1812/C1738A, C1746A, C1789A, C1790A); test: ITC binding of p53; conditions: for Ka: ITC, 20 mM Tris-HCl (pH 7.2), 100 mM NaCl, 2 mM β-mercaptoethanol, 35 °C, 1:1 binding model, performed at least twice, ND = No binding was detected
CBP Taz2 = conditions: α1, α2, α3 surface of Taz2; cited from earlier work
Taz2 domain of p300 [2] = test: pH dependence of p53 binding to Taz2 by ITC; conditions: between pH 5.9 and 6.8; ITC at 35 °C; 100 mM Tris, 100 mM Bis-Tris, 100 mM acetate
Taz2 R1731A = test: ITC binding of p53; conditions: ITC at 35 °C
Taz2 S1741D = test: ITC binding of p53; conditions: ITC at 35 °C
Taz2 domain of p300 [3] = test: Salt dependence of p53; type: binding; conditions: ITC at 35 °C; similar pH values; 100 mM acetate as opposed to 100 mM NaCl
[4] = ITC at 35 °C, pH 7.2, 100 mM NaCl

Substance: W53A/F54A double mutation of p53(25–65): W53A/F54A double mutation of p53(25–65)
- Taz2 binding of double mutant (p300 Taz2): abrogated Taz2 binding

Substance: p53 E51Q: p53(35–59) with mutation of Glu51 to glutamine
- Ka [1]: (0.56 ± 0.13) × 10^6 M^−1

Substance: p53 TAD1: first transactivation subdomain of p53 (residues 1–39)
- effect of phosphorylation on Taz2 binding (p300 Taz2): increased its affinity for p300 Taz2
- binding to CBP Taz2 (CBP Taz2): high affinity

Substance: p53 TAD2: second transactivation subdomain of p53 (residues 40–61)
- effect of phosphorylation on Taz2 binding (p300 Taz2): unaffected by phosphorylation
- affinity for Taz2 (p300 Taz2; p53 TAD2 compared with p53 TAD1): tighter than that of p53 TAD1
- binding to CBP Taz2 (CBP Taz2): high affinity

Substance: p53(1–39): p53 TAD1, residues 1–39 [reference compound]
- pH dependence of affinity for Taz2, pH 5.9 to 6.8 (Taz2 domain of p300 [2]): not dependent upon pH between pH 5.9 and 6.8

Substance: p53(1–57): p53(1–57), both TAD subdomains
- overall affinity for Taz2 relative to single subdomains (p300 Taz2): overall affinity higher than that of either interaction alone

Substance: p53(35–59): p53 TAD2 peptide, residues 35–59, synthesized by solid-phase method or expressed as GST fusion
- reduction in binding affinity vs wild-type Taz2 (Taz2 R1731A): 3 fold
- effect of Taz2 mutation on binding (Taz2 S1741D): did not affect binding
- effect of phosphorylation on Taz2 binding (p300 Taz2): does not significantly affect binding
- affinity in 100 mM acetate vs 100 mM NaCl (Taz2 domain of p300 [3]): significantly higher

The next lines start with the values.

- Ka [1]: (0.60 ± 0.08) × 10^6 M^−1
Substance: p53 D48N: p53(35–59) with mutation of Asp48 to asparagine

- reduction in the association constant compared with wild-type p53 peptide [1, 4]: 55%
- Ka [1]: (0.53 ± 0.09) × 10^6 M^−1
Substance: p53 F54S: p53(35–59) with mutation of Phe54 to serine

- weaker binding to Taz2 than wild-type [1, 4]: 3 fold
- Ka [1]: (0.31 ± 0.01) × 10^6 M^−1
Substance: p53 I50A: p53(35–59) mutant peptide I50A

- Ka [1]: (0.91 ± 0.04) × 10^6 M^−1
Substance: p53 L45A: p53(35–59) mutant peptide L45A

- Ka [1]: (1.32 ± 0.05) × 10^6 M^−1
Substance: p53 M40A: p53(35–59) mutant peptide M40A

- Ka [1]: (1.29 ± 0.35) × 10^6 M^−1
Substance: p53 Q52E: p53(35–59) mutant peptide Q52E

- Ka [1]: (1.16 ± 0.10) × 10^6 M^−1
Substance: p53 T55A: p53(35–59) mutant peptide T55A

- detectable binding to Taz2 ([1]; ITC at 35 °C): loss of detectable binding
Substance: p53 W53Q: p53(35–59) with Trp53 mutated to glutamine (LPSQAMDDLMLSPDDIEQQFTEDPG)

- Ka [1]: (1.30 ± 0.05) × 10^6 M^−1
Substance: p53 pThr55: p53(35–59) phosphorylated at Thr55
